Data taken from the supplement of paper PMC10307832.

Legend:
Test in all cases: relative viability (nuclei count vs DMSO), 5 days (fraction); higher = more cells survive
[1] = compound: COC1=CC=C(C=C1)CN2C=CC3=C2C=C(C=C3)C(=O)NO + CC(C)C[C@H](NC(=O)[C@H](Cc1ccccc1)NC(=O)c1cnccn1)B(O)O [Bortezomib] (partner 0.002 µM)
Outline: (§1)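 Nuclei were stained with Hoechst during a one-step fixation (final 0.05% Triton X-100, 1% formaldehyde, 1 ug/ml Hoechst) carried out 5 days after dosing, then counted on 4× images. The cells, lung cancer lines in 1536-well plates, had been dosed by pin tool the day after seeding with one drug alone or a fixed anchor-drug dose plus five library-drug doses (not always all listed) in √10 steps. Relative viability is the nuclei count in treated wells divided by that in vehicle wells, and each value is the median of duplicate plates.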

[2] = compound: COC1=CC=C(C=C1)CN2C=CC3=C2C=C(C=C3)C(=O)NO + C[C@@H](Oc1cc(-c2cnn(C3CCNCC3)c2)cnc1N)c1c(Cl)ccc(F)c1Cl [Crizotinib] (partner 1 µM)
Outline: as §1

Veliparib + Bortezomib = compound: C[C@]1(c2nc3c(C(N)=O)cccc3[nH]2)CCCN1 [Veliparib] + CC(C)C[C@H](NC(=O)[C@H](Cc1ccccc1)NC(=O)c1cnccn1)B(O)O [Bortezomib] (partner 0.002 µM)
Outline: as §1

Veliparib + AZD7762 = compound: C[C@]1(c2nc3c(C(N)=O)cccc3[nH]2)CCCN1 [Veliparib] + NC(=O)Nc1cc(-c2cccc(F)c2)sc1C(=O)N[C@H]1CCCNC1 [AZD7762] (partner 0.2 µM)
Outline: as §1

Cell Line | relative viability ([1]; first compound 0.08 µM) | relative viability ([1]; first compound 0.253 µM) | relative viability ([1]; first compound 0.8 µM) | relative viability ([1]; first compound 2.53 µM) | relative viability ([1]; first compound 8 µM) | relative viability ([2]; first compound 0.253 µM) | relative viability ([2]; first compound 0.8 µM) | relative viability ([2]; first compound 2.53 µM) | relative viability ([2]; first compound 8 µM) | relative viability (Veliparib + Bortezomib; first compound 0.02 µM) | relative viability (Veliparib + Bortezomib; first compound 0.06325 µM) | relative viability (Veliparib + Bortezomib; first compound 0.2 µM) | relative viability (Veliparib + Bortezomib; first compound 0.6325 µM) | relative viability (Veliparib + Bortezomib; first compound 2 µM) | relative viability ([2]; first compound 0.08 µM) | relative viability (Veliparib + AZD7762; first compound 0.02 µM) | relative viability (Veliparib + AZD7762; first compound 0.06325 µM) | relative viability (Veliparib + AZD7762; first compound 0.2 µM) | relative viability (Veliparib + AZD7762; first compound 0.6325 µM) | relative viability (Veliparib + AZD7762; first compound 2 µM)
EBC-1 | 0.574 | 0.496 | 0.532 | 0.54 | 0.44 | 0.183 | 0.201 | 0.179 | 0.181 | 0.615 | 0.539 | 0.527 | 0.479 | 0.57 | – | – | – | – | – | –
NCI-H1650 | 0.17 | 0.174 | 0.208 | 0.211 | 0.195 | 0.982 | 1.05 | 0.915 | 0.693 | – | 0.195 | 0.204 | 0.2 | 0.182 | 0.902 | – | – | – | – | –
NCI-H2009 | 0.771 | 0.967 | 0.958 | 0.975 | 0.84 | 0.993 | 0.995 | 0.967 | 1.06 | 0.299 | 0.869 | 0.808 | 0.919 | 1.15 | 1.02 | – | – | – | – | –
NCI-H522 | – | – | – | – | – | – | – | – | – | – | – | – | – | – | – | 0.805 | 0.896 | 0.846 | 0.87 | 0.873
COR-L 105 | – | 0.741 | 0.654 | 0.625 | 0.277 | 0.847 | 0.714 | 0.775 | 0.434 | 0.735 | 0.633 | 0.548 | 0.783 | 0.83 | – | – | – | – | – | –
A549 | – | – | – | – | – | 0.767 | 0.855 | 0.617 | 0.63 | – | – | – | – | – | – | – | – | – | – | –
NCI-H1563 | 0.788 | 0.916 | 0.95 | 0.839 | 0.69 | 0.847 | 0.957 | 0.921 | 0.943 | 0.645 | 0.803 | 0.859 | 0.792 | 0.799 | 0.718 | – | – | – | – | –
NCI-H2342 | – | – | – | – | – | – | – | – | – | – | – | – | – | – | – | 0.392 | 0.543 | 0.417 | 0.471 | 0.405
NCI-H2228 | 1.22 | 1.03 | 0.93 | 1.18 | 0.863 | 0.549 | 0.535 | 0.492 | 0.423 | 0.924 | 0.844 | 1 | 0.843 | 0.999 | 0.45 | – | – | – | – | –
LK-2 | – | – | – | – | – | 0.256 | 0.258 | 0.255 | 0.226 | – | – | – | – | – | – | 0.32 | 0.367 | 0.461 | 0.465 | 0.492
SW 900 | – | – | – | – | – | – | – | – | – | – | – | – | – | – | – | – | 0.575 | 0.526 | 0.59 | 0.591
NCI-H1793 | – | – | – | – | – | – | – | – | – | – | – | – | – | – | – | 0.532 | 0.518 | 0.592 | 0.56 | 0.581
NCI-H1299 | 0.994 | 1.06 | 1.04 | 1.03 | 1.03 | 0.978 | 0.967 | 0.943 | 0.959 | 1.04 | 0.979 | 1.02 | 1.03 | 1 | 0.947 | – | – | – | – | –
NCI-H1944 | – | – | – | – | – | 1.18 | 1.1 | 1.09 | 1.08 | – | – | – | – | – | – | 0.521 | 0.592 | 0.504 | 0.511 | 0.529
Calu-6 | 1.07 | 0.979 | 0.968 | 0.953 | 0.871 | 0.759 | 0.773 | 0.894 | 0.71 | 1.1 | 0.966 | 0.926 | 1.02 | 0.859 | 0.433 | – | – | – | – | –
